# Test results as given in patent publication US7553861B2, “Dipeptidyl peptidase-IV inhibitors” (Alantos Pharmaceuticals Holding, Inc., priority 2005, dated 2009).
# pKi: −log10 of the molar value.
# Biological target: T1, DPP-IV (Homo sapiens, UniProt P27487)
# T1 construct: purchased R&D Systems GmbH, Germany
# Test: Assay for determining DP-IV inhibition (fluorometric, Gly-Pro-AMC substrate)
# Type: biochemical
# Details: Inhibition of DPP-IV, K(i) calculated from IC(50) with IC(50)=K(i)(1+[S]/Km), pH 8.0
# Description: The inhibitory activity of compounds against DPP-IV can be determined by in vitro assay systems, which are themselves well established in the art. The assay results given in Table 5 were obtained according to the following method, employing a modified version of the assay described by Leiting et al., in an article entitled “Catalytic properties and inhibition of proline-specific dipeptidyl peptidases II, IV and VII” in Biochem. J. Vol. 371, pages 525-532 (2003):
# DPP-IV activity was determined fluorometrically with Gly-Pro-AMC (where AMC stands for 7-amido-4-methylcoumarin, Bachem AG, Switzerland) as substrate. The reaction mixture contained 10 μl of 1 ng/μl DPP-IV (R&D Systems GmbH, Germany) and 80 μl of 25 mM Tris/HCl buffer, pH 8.0. Compounds were supplied as DMSO stock solutions and diluted in assay buffer to a maximal DMSO concentration of 1% in the assay. Prior to start of the reaction, the mixture was incubated for 30 min at room temperature. The reaction was started by addition of 10 μl of 100 μM substrate solution.
# The fluorescence intensity was measured at excitation and emission wavelengths of 355 and 460 nm, respectively, in a FluoStar Galaxy Multiwell Plate (BMG Labtech, Germany). Fluorescence was determined 3 and 4 minutes after start of reaction and increase in fluorescence was used for determination of enzymatic activity. IC(50) values of tested compounds were determined via plotting enzymatic activity versus concentration of test compound and determining the concentration of test compound which yields a 50% inhibition of enzymatic activity.
# K(i) values were calculated using the Michaelis-Menten equation for competitive inhibition: IC(50)=K(i)(1+[S]/Km)
# T1 sequence (P27487 whole entry): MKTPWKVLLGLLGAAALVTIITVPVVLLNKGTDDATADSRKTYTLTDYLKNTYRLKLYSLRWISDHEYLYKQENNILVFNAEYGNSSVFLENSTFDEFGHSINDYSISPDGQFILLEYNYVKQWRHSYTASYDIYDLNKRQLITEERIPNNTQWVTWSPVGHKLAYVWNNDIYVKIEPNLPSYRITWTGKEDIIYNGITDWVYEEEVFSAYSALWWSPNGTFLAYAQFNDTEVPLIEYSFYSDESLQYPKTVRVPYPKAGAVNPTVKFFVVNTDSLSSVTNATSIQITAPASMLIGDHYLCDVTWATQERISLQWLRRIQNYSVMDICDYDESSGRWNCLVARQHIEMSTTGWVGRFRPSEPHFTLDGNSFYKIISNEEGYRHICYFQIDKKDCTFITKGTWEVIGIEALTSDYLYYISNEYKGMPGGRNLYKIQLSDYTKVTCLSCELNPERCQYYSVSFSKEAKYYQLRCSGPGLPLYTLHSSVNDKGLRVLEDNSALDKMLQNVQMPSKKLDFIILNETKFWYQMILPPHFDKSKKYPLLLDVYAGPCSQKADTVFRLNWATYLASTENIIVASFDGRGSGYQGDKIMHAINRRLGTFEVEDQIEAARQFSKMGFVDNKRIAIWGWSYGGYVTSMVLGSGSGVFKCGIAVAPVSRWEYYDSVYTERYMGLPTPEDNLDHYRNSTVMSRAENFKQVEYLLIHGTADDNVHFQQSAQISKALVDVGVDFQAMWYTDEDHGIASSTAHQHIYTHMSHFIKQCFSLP
row,pKi,Structure (SMILES)
1,6.30 to 7.29,N#C[C@@H]1CCCN1C(=O)CNCCNC1c2ccccc2CCc2ccccc21 [Example 1]
2,4.52 to 6.30,N#C[C@@H]1CCCN1C(=O)CNC1c2ccccc2CCc2ccccc21 [Example 2]
3,4.52 to 6.30,CC(C)(CNC1c2ccccc2CCc2ccccc21)NCC(=O)N1CCC[C@H]1C#N [Example 3]
4,4.52 to 6.30,N#C[C@@H]1CCCN1C(=O)CNCC1c2ccccc2CCc2ccccc21 [Example 4]
5,4.52 to 6.30,N#C[C@@H]1CCCN1C(=O)CNCC(=O)N1c2ccccc2CCc2ccccc21 [Example 5]
6,6.30 to 7.29,N#C[C@@H]1CCCN1C(=O)CNCCN1c2ccccc2C=Cc2ccccc21 [Example 7]
7,6.30 to 7.29,N#C[C@@H]1CCCN1C(=O)CNCCCN1c2ccccc2CCc2ccccc21 [Example 9]
8,6.30 to 7.29,N#C[C@@H]1CCCN1C(=O)CNCCC1(O)c2ccccc2CCc2ccccc21 [Example 10]
9,6.30 to 7.29,N#C[C@@H]1CCCN1C(=O)CNCC=C1c2ccccc2CCc2ccccc21 [Example 11]
10,6.30 to 7.29,N#C[C@@H]1CCCN1C(=O)CNC1CCN(C2c3ccccc3CCc3ccccc32)CC1 [Example 12]
11,6.30 to 7.29,N#C[C@@H]1CCCN1C(=O)CNC1CCN(C2c3ccccc3CCc3ccccc32)C1 (stereo partly shown) [Example 13]
12,4.52 to 6.30,N#C[C@@H]1CCCN1C(=O)CNC1CN(C2c3ccccc3CCc3ccccc32)C1 [Example 14]
13,4.52 to 6.30,N#C[C@@H]1CCCN1C(=O)CNC1c2ccc(Cl)cc2CCc2cccnc21 (stereo partly shown) [Example 15]
14,6.30 to 7.29,N#C[C@@H]1CCCN1C(=O)CNCCC1(C#N)c2ccccc2CCc2ccccc21 [Example 16]
15,7.30 to 8.22,N#C[C@@H]1CCCN1C(=O)CNCCC1(C(N)=O)c2ccccc2CCc2ccccc21 [Example 17]
16,> 8.22,C[C@@H](CC1(C(N)=O)c2ccccc2CCc2ccccc21)NCC(=O)N1CCC[C@H]1C#N [Example 18]
17,7.30 to 8.22,C[C@H](CC1(C(N)=O)c2ccccc2CCc2ccccc21)NCC(=O)N1CCC[C@H]1C#N [Example 19]
18,6.30 to 7.29,N#C[C@@H]1CCCN1C(=O)CNCCNC1c2ccc(Cl)cc2CCc2cccnc21 (stereo partly shown) [Example 20]
19,6.30 to 7.29,N#C[C@@H]1CCCN1C(=O)CNCCNC1c2ccccc2CCc2cccnc21 (stereo partly shown) [Example 21]
20,> 8.22,N#C[C@@H]1CCCN1C(=O)CNCCC1(C(N)=O)c2ccc(C(N)=O)cc2CCc2ccc(F)cc21 (stereo partly shown) [Example 22]
21,7.30 to 8.22,N#C[C@@H]1CCCN1C(=O)CNCCC1(c2nn[nH]n2)c2ccccc2CCc2ccccc21 [Example 23]
22,> 8.22,N#C[C@@H]1CCCN1C(=O)CNCCC1(c2nn[nH]n2)c2ccc(F)cc2CCc2ccc(F)cc21 (stereo partly shown) [Example 24]
23,7.30 to 8.22,N#C[C@@H]1CCCN1C(=O)CNCCC1(c2nn[nH]n2)c2ccc(Cl)cc2CCc2cc(Cl)ccc21 [Example 25]
24,6.30 to 7.29,C[C@@H](CN1C[C@@H]2C[C@H]1C(=O)N2Cc1cccc(F)c1)NCC(=O)N1CCC[C@H]1C#N [Example 26]
25,> 8.22,C[C@@H](CC1(c2nn[nH]n2)c2ccc(C(N)=O)cc2CCc2cc(C(N)=O)ccc21)NCC(=O)N1CCC[C@H]1C#N [Example 27]
26,> 8.22,CNC(=O)c1ccc2c(c1)CCc1cc(C(=O)NC)ccc1C2(C[C@H](C)NCC(=O)N1CCC[C@H]1C#N)c1nn[nH]n1 [Example 28]

row,pKi,Structure (SMILES)
1,> 8.22,C[C@@H](CC1(c2nn[nH]n2)c2ccc(C(=O)N(C)C)cc2CCc2cc(C(=O)N(C)C)ccc21)NCC(=O)N1CCC[C@H]1C#N [Example 29]
2,> 8.22,CCNC(=O)c1ccc2c(c1)CCc1cc(C(=O)NCC)ccc1C2(C[C@H](C)NCC(=O)N1CCC[C@H]1C#N)c1nn[nH]n1 [Example 30]
3,7.30 to 8.22,CC(C)NC(=O)c1ccc2c(c1)CCc1cc(C(=O)NC(C)C)ccc1C2(C[C@H](C)NCC(=O)N1CCC[C@H]1C#N)c1nn[nH]n1 [Example 31]
4,> 8.22,C[C@@H](CC1(c2nn[nH]n2)c2ccc(C(=O)N3CCC3)cc2CCc2cc(C(=O)N3CCC3)ccc21)NCC(=O)N1CCC[C@H]1C#N [Example 32]
5,> 8.22,C[C@@H](CC1(c2nn[nH]n2)c2ccc(C(=O)N3CCOCC3)cc2CCc2cc(C(=O)N3CCOCC3)ccc21)NCC(=O)N1CCC[C@H]1C#N [Example 33]
6,> 8.22,N#C[C@@H]1CCCN1C(=O)CNCCC1(c2nn[nH]n2)c2ccc(C(N)=O)cc2CCc2cc(C(N)=O)ccc21 [Example 34]
7,> 8.22,CNC(=O)c1ccc2c(c1)CCc1cc(C(=O)NC)ccc1C2(CCNCC(=O)N1CCC[C@H]1C#N)c1nn[nH]n1 [Example 35]
8,7.30 to 8.22,CN(C)C(=O)c1ccc2c(c1)CCc1cc(C(=O)N(C)C)ccc1C2(CCNCC(=O)N1CCC[C@H]1C#N)c1nn[nH]n1 [Example 36]
9,7.30 to 8.22,C[C@@H](CC1(C(N)=O)c2ccc(C(=O)N(C)C)cc2CCc2cc(C(=O)N(C)C)ccc21)NCC(=O)N1CCC[C@H]1C#N [Example 39]
10,4.52 to 6.30,C[C@@H](CC1(c2noc(C(F)(F)F)n2)c2ccc(C(=O)N(C)C)cc2CCc2cc(C(=O)N(C)C)ccc21)NCC(=O)N1CCC[C@H]1C#N [Example 40]
11,> 8.22,COC(=O)c1ccc2c(c1)CCc1cc(C(=O)OC)ccc1C2(C[C@H](C)NCC(=O)N1CCC[C@H]1C#N)c1nn[nH]n1 [Example 43]
12,> 8.22,C[C@@H](CC1(c2nn[nH]n2)c2ccc(C(=O)O)cc2CCc2cc(C(=O)O)ccc21)NCC(=O)N1CCC[C@H]1C#N [Example 44]
13,7.30 to 8.22,N#C[C@@H]1CCCN1C(=O)CNCCC1(c2nn[nH]n2)c2cc(F)ccc2CCc2ccc(C(N)=O)cc21 (stereo partly shown) [Example 45]
14,4.52 to 6.30,CN1C(=O)c2ccccc2C(CCNCC(=O)N2CCC[C@H]2C#N)(c2nn[nH]n2)c2ccccc21 (stereo partly shown) [Example 46]
15,> 8.22,N#C[C@@H]1C[C@@H]2C[C@@H]2N1C(=O)CNCCC1(c2nn[nH]n2)c2ccc(C(N)=O)cc2CCc2cc(C(N)=O)ccc21 [Example 47]
16,> 8.22,N#C[C@@H]1CCCN1C(=O)[C@@H](N)CN1C[C@@H]2C[C@H]1C(=O)N2Cc1cccc(F)c1 [Example 48]
17,> 8.22,N#C[C@@H]1CCCN1C(=O)[C@@H](N)CN1C[C@@H]2C[C@H]1C(=O)N2Cc1c(Cl)cccc1Cl [Example 49]
18,7.30 to 8.22,C[C@@H](c1ccc(F)cc1)N1C(=O)[C@@H]2CC1CN2C[C@H](N)C(=O)N1CCSC1 [Example 50]
19,> 8.22,N#C[C@@H]1CCCN1C(=O)[C@@H](N)CN1CC2C[C@H]1C(=O)N2Cc1cc(F)cc(F)c1 [Example 51]
20,> 8.22,N#C[C@@H]1C[C@@H]2C[C@@H]2N1C(=O)[C@@H](N)CN1CC2C[C@H]1C(=O)N2Cc1cc(F)cc(F)c1 [Example 52]
21,> 8.22,N#Cc1cccc(CN2C(=O)[C@@H]3CC2CN3C[C@H](N)C(=O)N2CCC[C@H]2C#N)c1 [Example 53]
22,> 8.22,N#Cc1cccc(CN2C(=O)[C@@H]3CC2CN3C[C@H](N)C(=O)N2[C@H](C#N)C[C@@H]3C[C@@H]32)c1 [Example 54]
23,> 8.22,N#Cc1ccc(CN2C(=O)[C@@H]3CC2CN3C[C@H](N)C(=O)N2CCC[C@H]2C#N)cc1 [Example 55]
24,> 8.22,C[C@H](c1ccc(F)cc1)N1C(=O)[C@@H]2CC1CN2C[C@H](N)C(=O)N1CCC[C@H]1C#N [Example 56]
25,> 8.22,C[C@@H](c1ccc(F)cc1)N1C(=O)[C@@H]2CC1CN2C[C@H](N)C(=O)N1CCC[C@H]1C#N [Example 57]
26,> 8.22,C[C@@H](c1ccc(F)cc1)N1C(=O)[C@@H]2CC1CN2C[C@H](N)C(=O)N1[C@H](C#N)C[C@@H]2C[C@@H]21 [Example 58]
